Tested on: FSH
Assay: FSH level in blood (serum CLIA) after repeated sc PEP-1
Type: in vivo, SD rats
Description: PEP-1 (peptide of SEQ ID NO: 1), lyophilized white powder, obtained according to the method mentioned in example 1 was dissolved in 0.9% of saline, considering the correction factor of PEP-1 (purity: 94.13%, content: 92.36%, correction factor: 1.15). 50 mg/mL stock solution was further diluted into 20 mg/mL, 2 mg/mL, and 1 mg/mL with 0.9% saline, and stored at 4° C. for a week until the use.
The purpose of this example is to confirm the change of sexual hormones in blood from SD rats with 7 days repeated daily administration of SEQ ID NO: 1 peptide, PEP-1. This experiment followed the Ethics Regulation of Animal Test by KAMSI Inc. (Korea Animal Medical Science Institute). In addition, this experiment, Non-GLP experiment, referred to the MFDS (Ministry of Food and Drug Safety) notification; Agent 2013-40 (5th April 2013), Principles of Good Laboratory Practice (1997).
SPF Rats (Crlj:CD(SD)) were purchased from ORIENTBio Inc. (Mokdong-ri, Buk-myeon, Gapyeong-gun, Gyeonggi-do, Republic of Korea). 75 male (6.5 weeks old and 190˜210 g) and 75 female (6.5 weeks old and 160˜180 g) rats were monitored for 4 days, and 64 of male and female rats (each) were selected for the experiment. Raising condition is as follows; 23±3° C. of temperature, […] of relative humidity, 10˜20 times/hr of number of air changes, 12 hours (8 a.m.˜8 p.m.) of lighting with 150˜300 Lux of intensity.
64 male and female […] (mentioned above) were divided into 8 groups. Administration regimen, for example, drugs, routes, dosages, and volumes were as follows:
The detailed administration regimen is as follows; once a day, twice a day and twice a week in each experimental group. Injection initiated at 10 a.m. every day, and each rat was injected at one minute intervals. Rats in Group 9, 10, 13 and 14 were injected twice a week. Administration of high dose test agent preceded that of low dose. The volume of injection was calculated using recently measured weight of rats, and it was 5 mL/kg. Subcutaneous injection was performed as follows; assistant tilted the back of rat upward, and experimenter sterilized the back of rat with 70% alcohol, followed by subcutaneous injection of test agent with 26 G syringe.
1.4 mL of blood sample (0.7 mL of serum) was collected after measurement of weight (Day 0). Next day (1 Day), 1.4 mL of blood sample (0.7 mL of serum) was collected twice after injection of test agent (4 hrs and 8 hrs after administration of test agent). For next 6 days (Day 2˜Day 7), 1.4 mL of blood was extracted once everyday (4 hours after injection of test agent). Dose and volume of test agent of each group followed the Table 3, and injection time zone was same every day. Blood was extracted from the jugular vein, and left at room temperature for 30 minutes. Serum was separated using centrifugation (10,000 rpm for 5 minutes), and stored at −70±5° C. in Deep freezer until the use. Blood extraction from each subject was done in the same time zone every day.
A CLIA (Chemi-Luminescence Immune Assay) Kit was used to analyze Testosterone, Estradiol E2, FSH (Follicle stimulating hormone), and LH (Luteinizing hormone). Analysis was completed within 48 hrs after blood extraction (Laboratory Medicine Department, Chung-Ang University Hospital), and detailed method is as follows; One-way ANOVA was used to verify the comparison between the vehicle and PEP-1, and between different doses of PEP-1. For further analysis, Duncan test was used as parametric test and Dunnett's test as non-parametric test. p<0.05 represents the statistical significance, and all statistical analysis was carried out with SPSS 10.1.
FSH was analyzed using the samples prepared from example 2. 100 μL of serum was used for analysis. Fundamentals of analysis is Two-site sandwich immunoassay based on direct chemi-luminescent. As mentioned in example 2, CLIA (Chemi-luminescence immune assay) Kit was used, following the manufacture's protocol.

Sequence: EARPALLTSRLRFIPK (listed as Homo sapiens) [PEP-1, hormone secretion modulator / GnRH analog]
- FSH level in blood (G3 Male 5 mg/kg sc 1/day x7, 7 days): 0.10 mIU/mL
- FSH level in blood (G4 Female 5 mg/kg sc 1/day x7, 4 hr): 0.17 mIU/mL
- FSH level in blood (G4 Female 5 mg/kg sc 1/day x7, 8 hr): 0.30 mIU/mL
- FSH level in blood (G4 Female 5 mg/kg sc 1/day x7, 2 days): 0.32 mIU/mL
- FSH level in blood (G4 Female 5 mg/kg sc 1/day x7, 3 days): 0.12 mIU/mL
- FSH level in blood (G4 Female 5 mg/kg sc 1/day x7, 4 days): 0.17 mIU/mL
- FSH level in blood (G4 Female 5 mg/kg sc 1/day x7, 5 days): 0.21 mIU/mL
- FSH level in blood (G4 Female 5 mg/kg sc 1/day x7, 6 days): 0.13 mIU/mL
- FSH level in blood (G4 Female 5 mg/kg sc 1/day x7, 7 days): 0.17 mIU/mL
- FSH level in blood (G4 Female 5 mg/kg sc 1/day x7, pre): 0.20 mIU/mL
- FSH level in blood (G6 Female 10 mg/kg sc 1/day x7, 4 hr): 0.31 mIU/mL
- FSH level in blood (G6 Female 10 mg/kg sc 1/day x7, 8 hr): 0.48 mIU/mL
- FSH level in blood (G6 Female 10 mg/kg sc 1/day x7, 2 days): 0.31 mIU/mL
- FSH level in blood (G6 Female 10 mg/kg sc 1/day x7, 3 days): 0.20 mIU/mL
- FSH level in blood (G6 Female 10 mg/kg sc 1/day x7, 4 days): 0.17 mIU/mL
- FSH level in blood (G6 Female 10 mg/kg sc 1/day x7, 5 days): 0.19 mIU/mL
- FSH level in blood (G6 Female 10 mg/kg sc 1/day x7, 6 days): 0.1 mIU/mL
- FSH level in blood (G6 Female 10 mg/kg sc 1/day x7, 7 days): 0.16 mIU/mL
- FSH level in blood (G6 Female 10 mg/kg sc 1/day x7, pre): 0.31 mIU/mL
- FSH level in blood (G8 Female 10 mg/kg sc 2/day x4, 4 hr): 0.26 mIU/mL
- FSH level in blood (G8 Female 10 mg/kg sc 2/day x4, 8 hr): 0.21 mIU/mL
- FSH level in blood (G8 Female 10 mg/kg sc 2/day x4, 2 days): 0.28 mIU/mL
- FSH level in blood (G8 Female 10 mg/kg sc 2/day x4, 3 days): 0.18 mIU/mL
- FSH level in blood (G8 Female 10 mg/kg sc 2/day x4, 4 days): 0.13 mIU/mL
- FSH level in blood (G8 Female 10 mg/kg sc 2/day x4, 5 days): 0.16 mIU/mL
- FSH level in blood (G8 Female 10 mg/kg sc 2/day x4, 6 days): 0.15 mIU/mL
- FSH level in blood (G8 Female 10 mg/kg sc 2/day x4, 7 days): 0.21 mIU/mL
- FSH level in blood (G8 Female 10 mg/kg sc 2/day x4, pre): 0.26 mIU/mL
- FSH level in blood (G9 Male 10 mg/kg sc 2/week x2 (days 1,7), 4 hr): 0.29 mIU/mL
- FSH level in blood (G9 Male 10 mg/kg sc 2/week x2 (days 1,7), 8 hr): 0.28 mIU/mL
- FSH level in blood (G9 Male 10 mg/kg sc 2/week x2 (days 1,7), 2 days): 0.22 mIU/mL
- FSH level in blood (G9 Male 10 mg/kg sc 2/week x2 (days 1,7), 3 days): 0.17 mIU/mL
- FSH level in blood (G9 Male 10 mg/kg sc 2/week x2 (days 1,7), 4 days): 0.37 mIU/mL
- FSH level in blood (G9 Male 10 mg/kg sc 2/week x2 (days 1,7), 5 days): 0.25 mIU/mL
- FSH level in blood (G9 Male 10 mg/kg sc 2/week x2 (days 1,7), 6 days): 0.14 mIU/mL
- FSH level in blood (G9 Male 10 mg/kg sc 2/week x2 (days 1,7), 7 days): 0.15 mIU/mL
- FSH level in blood (G9 Male 10 mg/kg sc 2/week x2 (days 1,7), pre): 0.28 mIU/mL
- FSH level in blood (G10 Female 10 mg/kg sc 2/week x2 (days 1,7), 4 hr): 0.26 mIU/mL
- FSH level in blood (G10 Female 10 mg/kg sc 2/week x2 (days 1,7), 8 hr): 0.44 mIU/mL
- FSH level in blood (G10 Female 10 mg/kg sc 2/week x2 (days 1,7), 2 days): 0.37 mIU/mL
- FSH level in blood (G10 Female 10 mg/kg sc 2/week x2 (days 1,7), 3 days): 0.21 mIU/mL
- FSH level in blood (G10 Female 10 mg/kg sc 2/week x2 (days 1,7), 4 days): 0.18 mIU/mL
- FSH level in blood (G10 Female 10 mg/kg sc 2/week x2 (days 1,7), 5 days): 0.32 mIU/mL
- FSH level in blood (G10 Female 10 mg/kg sc 2/week x2 (days 1,7), 6 days): 0.23 mIU/mL
- FSH level in blood (G10 Female 10 mg/kg sc 2/week x2 (days 1,7), 7 days): 0.28 mIU/mL
- FSH level in blood (G10 Female 10 mg/kg sc 2/week x2 (days 1,7), pre): 0.31 mIU/mL
- FSH level in blood (G11 Male 100 mg/kg sc 1/day x7, 4 hr): 0.27 mIU/mL
- FSH level in blood (G11 Male 100 mg/kg sc 1/day x7, 8 hr): 0.36 mIU/mL
- FSH level in blood (G11 Male 100 mg/kg sc 1/day x7, 2 days): 0.17 mIU/mL
- FSH level in blood (G11 Male 100 mg/kg sc 1/day x7, 3 days): 0.14 mIU/mL

Reference: US10561703B2, “Method of modulating sex hormone levels using a sex hormone secretion modulator” (GEMVAX & KAEL CO., LTD., priority 2013, dated 2020)
